Source: publication PMC9105384, “Ethyl Gallate Dual-Targeting PTPN6 and PPARγ Shows Anti-Diabetic and Anti-Obese Effects” (International Journal of Molecular Sciences, 2022)

How the values were obtained:
PTPRJ = biological target: T1, PTPRJ (Homo sapiens, UniProt Q12913); set-up: DiFMUP hydrolysis by purified PTPs, fluorescence Ex355/Em460, initial rates over 10 min; Michaelis-Menten and Lineweaver-Burk Km; settings: optimized pH for each PTP; substrate
T1 sequence (Q12913 1-1337): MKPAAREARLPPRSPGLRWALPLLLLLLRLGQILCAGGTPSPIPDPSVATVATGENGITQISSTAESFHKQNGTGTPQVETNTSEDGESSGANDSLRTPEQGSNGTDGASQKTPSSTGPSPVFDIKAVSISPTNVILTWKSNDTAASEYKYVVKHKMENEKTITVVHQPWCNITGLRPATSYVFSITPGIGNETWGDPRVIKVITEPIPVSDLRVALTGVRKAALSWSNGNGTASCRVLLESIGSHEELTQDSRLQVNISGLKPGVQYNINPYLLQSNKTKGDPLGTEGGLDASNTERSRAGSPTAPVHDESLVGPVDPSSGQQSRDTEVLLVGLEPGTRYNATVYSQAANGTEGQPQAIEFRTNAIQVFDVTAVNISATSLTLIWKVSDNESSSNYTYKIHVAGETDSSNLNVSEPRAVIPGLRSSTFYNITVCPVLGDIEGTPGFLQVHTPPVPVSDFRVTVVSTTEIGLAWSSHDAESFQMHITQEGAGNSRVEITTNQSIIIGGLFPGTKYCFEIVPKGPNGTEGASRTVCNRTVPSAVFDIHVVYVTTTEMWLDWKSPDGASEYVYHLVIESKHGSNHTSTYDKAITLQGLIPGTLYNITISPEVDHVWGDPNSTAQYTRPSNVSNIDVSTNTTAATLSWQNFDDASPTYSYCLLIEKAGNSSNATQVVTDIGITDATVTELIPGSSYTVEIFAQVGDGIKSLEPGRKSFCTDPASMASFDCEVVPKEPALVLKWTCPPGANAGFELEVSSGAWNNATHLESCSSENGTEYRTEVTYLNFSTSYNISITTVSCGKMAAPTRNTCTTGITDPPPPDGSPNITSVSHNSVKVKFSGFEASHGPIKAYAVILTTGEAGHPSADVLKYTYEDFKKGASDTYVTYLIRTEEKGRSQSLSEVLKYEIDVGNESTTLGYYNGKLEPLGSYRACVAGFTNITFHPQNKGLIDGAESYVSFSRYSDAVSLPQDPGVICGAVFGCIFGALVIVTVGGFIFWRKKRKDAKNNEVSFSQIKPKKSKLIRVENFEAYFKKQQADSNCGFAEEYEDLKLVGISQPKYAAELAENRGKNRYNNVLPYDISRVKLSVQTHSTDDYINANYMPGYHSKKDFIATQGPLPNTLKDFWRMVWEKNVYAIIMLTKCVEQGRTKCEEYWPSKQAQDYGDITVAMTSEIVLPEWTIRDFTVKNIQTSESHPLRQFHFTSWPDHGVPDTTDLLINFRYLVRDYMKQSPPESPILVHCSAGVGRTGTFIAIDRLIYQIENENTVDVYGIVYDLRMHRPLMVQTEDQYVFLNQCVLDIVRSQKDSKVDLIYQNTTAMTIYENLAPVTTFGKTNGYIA
Experimental: (§1) The enzymatic activity of each PTP was evaluated using 6,8-difluoro-4-methylumbelliferyl phosphate (DiFMUP) as the surrogate substrate. To reach within the range of the initial rate (v0) during the measurement for 10 min, the pH and concentration of each PTP were optimized and are listed in Table S3. To determine the Km values, each PTP with optimized concentration was added to the reaction buffer (20 mM Bis-Tris at pH 6.0 or Tris at pH 7.0 and 8.0, 150 mM NaCl, 2.5 mM dithiothreitol (DTT), 0.01% Triton X-100) containing various concentrations of DiFMUP to obtain a final volume of 100 μL in a 96-well plate. Fluorescence intensities were measured once every minute for a complete 10 min duration using a Victor™ X4 Multilabel Plate Reader (Perkin Elmer, Waltham, MA, USA) at excitation/emission = 355 nm/460 nm. The initial rates of the reaction were determined using a previously described procedure for calculating the amount of product formation. To screen a library of 1033 natural products (Chengdu Biopurify Phytochemicals Ltd., Chengdu, China) against 20 PTPs, each PTP with an optimized concentration was added to the reaction buffer with an optimized pH containing DiFMUP (2 × Km for each PTP) after adding each compound (20 μM). […] The Hill coefficient (nH), the degree of cooperativity, was calculated according to a previously published method. […]

PTPN1 = biological target: T2, PTPN1 (Homo sapiens, UniProt P18031); set-up: DiFMUP hydrolysis by purified PTPs, fluorescence Ex355/Em460, initial rates over 10 min; Michaelis-Menten and Lineweaver-Burk Km; settings: optimized pH for each PTP; substrate
T2 sequence (P18031 1-435): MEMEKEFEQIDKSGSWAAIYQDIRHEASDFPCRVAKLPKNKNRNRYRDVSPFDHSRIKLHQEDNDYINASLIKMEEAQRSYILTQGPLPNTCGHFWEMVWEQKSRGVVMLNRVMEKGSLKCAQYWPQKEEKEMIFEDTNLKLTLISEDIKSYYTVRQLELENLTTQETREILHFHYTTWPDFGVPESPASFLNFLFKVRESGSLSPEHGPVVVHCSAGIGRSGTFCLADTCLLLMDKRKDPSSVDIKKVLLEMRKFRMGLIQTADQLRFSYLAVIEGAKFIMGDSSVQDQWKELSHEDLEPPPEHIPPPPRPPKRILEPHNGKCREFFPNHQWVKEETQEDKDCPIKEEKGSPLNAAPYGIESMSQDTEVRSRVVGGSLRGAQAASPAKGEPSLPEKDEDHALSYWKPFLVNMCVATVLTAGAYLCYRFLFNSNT
Experimental: as §1

PTPN6 [1] = biological target: T3, PTPN6 (Homo sapiens, UniProt P29350); test: DiFMUP fluorescence phosphatase assay; Dixon and Lineweaver-Burk plots (IC50 […]); assay type: biochemical
PTPN6 [2] = biological target: T3, PTPN6; test: DiFMUP phosphatase screen, single dose […] (% inhibition, hit threshold […]); assay type: biochemical; settings: read-out: % inhibition at 20 μM

T3 sequence (P29350 whole entry): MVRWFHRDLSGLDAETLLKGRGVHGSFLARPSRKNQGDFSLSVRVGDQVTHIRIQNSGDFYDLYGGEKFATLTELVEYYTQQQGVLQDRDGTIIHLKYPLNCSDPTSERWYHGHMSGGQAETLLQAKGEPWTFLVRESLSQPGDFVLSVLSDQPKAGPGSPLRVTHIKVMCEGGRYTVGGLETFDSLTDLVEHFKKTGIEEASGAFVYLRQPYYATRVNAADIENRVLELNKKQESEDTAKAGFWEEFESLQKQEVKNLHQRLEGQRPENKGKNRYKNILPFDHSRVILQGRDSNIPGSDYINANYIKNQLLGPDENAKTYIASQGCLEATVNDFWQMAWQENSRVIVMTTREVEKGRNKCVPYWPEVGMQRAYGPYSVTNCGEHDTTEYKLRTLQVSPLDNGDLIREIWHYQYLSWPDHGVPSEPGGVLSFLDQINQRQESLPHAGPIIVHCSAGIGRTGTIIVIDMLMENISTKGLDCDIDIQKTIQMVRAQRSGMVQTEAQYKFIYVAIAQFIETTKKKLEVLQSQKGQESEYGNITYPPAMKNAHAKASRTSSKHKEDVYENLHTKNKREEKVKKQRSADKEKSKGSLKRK

| Structure (SMILES) | inhibition at 20 µM (PTPN6 [2]) [%] | further results |
| --- | --- | --- |
| Cc1cc(=O)oc2c(F)c(OP(=O)(O)O)c(F)cc12 [6,8-difluoro-4-methylumbelliferyl phosphate] |  | Km (PTPRJ): 66.4 µM; Km (PTPN1): 21.6 µM |
| CCOC(=O)c1cc(O)c(O)c(O)c1 [compound 271, ethyl gallate] |  | Ki (PTPN6 [1]): 3.4 µM |
| COc1ccc(-c2oc3c(CC=C(C)C)c(O[C@@H]4O[C@H](CO)[C@@H](O)[C@H](O)[C@H]4O)cc(O)c3c(=O)c2O)cc1 [compound 335, icariside I] | > 60 |  |
| O=C1C=CC(=O)c2c(O)cccc21 [compound 362, juglone] | > 60 |  |
| C[C@@H]1O[C@@H](Oc2c(-c3cc(O)c(O)c(O)c3)oc3cc(O)cc(O)c3c2=O)[C@H](O)[C@H](O)[C@H]1O [compound 429, myricetrin] | > 60 |  |
| CCCCCCCCCCCCCCCCC(C(=O)O)C(O)(CC(=O)O)C(=O)O (stereo not shown) [compound 891, agaric acid] | > 60 |  |
